Reference: ChEMBL document CHEMBL1134341, “Calculation of the hydrophobicity of platinum drugs” (J Med Chem, 2001)

How the values were obtained:
[1] = Octanol-water partition coefficient (logP) value for platinum compounds; assay type: physicochemical
[2] = The observed [pt] (mmol/mg protein) value for platinum content in cells; assay type: ADME

logP [1] | Observed [pt] [2] | Substance
0.86 | 17 mM (mg of protein)-1 | AMMONIO(DICHLORO)[DI(BUTYLCARBONYLOXY)]PLATINUM(CYCLOHEXYL)AMMONIUM
-0.47 | 3.5 mM (mg of protein)-1 | AMMONIO(DICHLORO)[DI(METHYLCARBONYLOXY)]PLATINUM(CYCLOHEXYL)AMMONIUM

Continued, substance first:

Substance | logP [1] | Observed [pt] [2]
AMMONIO(DICHLORO)PLATINUM(CYCLOHEXYL)AMMONIUM | -0.87 | 1.9 mM (mg of protein)-1
AMMONIO(DICHLORO)[DI(PROYLCARBONYLOXY)]PLATINUM(CYCLOHEXYL)AMMONIUM | 0.47 | 13.5 mM (mg of protein)-1
CISPLATIN | -2.36 | 1 mM (mg of protein)-1
